According to patent US20260347403A1, “FUNGICIDAL COMPOUND” (priority 2022, published 2026):
Numbered stars: 1 amine (or outer) side, 2 acyl side, 3 side chain; on linkers, the order of the positions; unused ones are H or OH. Bridge positions count the residues as written; N and C are the ends. Square brackets hold non-standard residues; d marks the D form. Peptide text beside a SMILES is read from it. * marks the point of attachment. X4 = NC(=O)C[C@@H](O)[C@@H](N[*:1])C(=O)[*:2]; d(aThr) = C[C@@H](O)[C@@H](N)C(=O)O; NMeF = CN[C@@H](Cc1ccccc1)C(=O)O; X3 = CC[C@@H](C)CCCCCCCCCCC(=O)*; dNMeN = CN[C@H](CC(N)=O)C(=O)O

How the values were obtained:
several fungal species = experiment: Leaf disc or leaf segment tests, summary over the fungi tested; assay type: in vivo; conditions: Tables 4 and 5; relative to the other compounds
Protocol: (§1) Leaf disks or leaf segments of various plant species were cut from plants grown in the greenhouse. The cut leaf disks, or segments were placed in multiwell plates (24-well format) onto water agar. The leaf disks were sprayed with a test solution before inoculation with the fungal spores. Compounds to be tested were prepared as DMSO solutions (max. 10 mg/ml) which were diluted to the appropriate concentration with water plus 0.025% Tween® 20 just before spraying. The inoculated leaf disks or segments were incubated under defined conditions (temperature, relative humidity, light, etc.) according to the respective test system. A single evaluation of disease level was carried out by visual evaluation 3-9 days days after inoculation, depending on the pathosystem as indicated below. Percent disease control relative to the untreated check leaf disks or segments was then calculated.

Botryotinia fuckeliana = experiment: Liquid culture, Botryotinia fuckeliana (Botrytis cinerea), Gray Mould, 3-4 days; assay type: cell-based; conditions: Table 3
Protocol: (§2) Mycelia fragments or conidia suspensions of a fungus, prepared either freshly from liquid cultures of the fungus or from cryogenic storage, were directly mixed into nutrient broth.
(§3) A stock solution for compound of Formula I(a) and Formula I(b) was produced in DMSO (max. 10 mg/ml), which was diluted with water plus 0.025% Tween®20 to produce a 10× concentrated sample and 10 μl of this solution was pipetted into a microtiter plate (96-well format). The nutrient broth containing the fungal spores/mycelia fragments was then added to give an end concentration of the tested compound. The test plates were incubated in the dark at 24 °C and 96% rh. The inhibition of fungal growth was determined photometrically after 2-7 days, depending on the pathosystem, and percent antifungal activity relative to the untreated check was calculated.
(§4) The effect of the test compound (Formula I(a), I(b) and Lipopeptin A) was tested against the following fungi under the conditions as outlined above and specifically herein below:
Botryotinia fuckeliana (Botrytis cinerea)/Liquid Culture (Gray Mould)
Conidia of the fungus from cryogenic storage were directly mixed into nutrient broth (Vogels broth). The inhibition of growth is determined photometrically 3-4 days after application.

Glomerella lagenarium = experiment: Liquid culture, Glomerella lagenarium (Colletotrichum lagenarium), Anthracnose, 3-4 days; assay type: cell-based; conditions: Table 3
Protocol: as §2, §3, §4
Glomerella lagenarium (Colletotrichum lagenarium)/Liquid Culture (Anthracnose)
Conidia of the fungus from cryogenic storage were directly mixed into nutrient broth (PDB potato dextrose broth). The inhibition of growth was measured photometrically 3-4 days after application.

[1] = system: Puccinia recondita f. sp. tritici; experiment: Leaf disc/segment test on wheat, Puccinia recondita f. sp. tritici (Brown Rust), 7-9 days after application; assay type: in vivo; conditions: Table 5
Protocol: as §1
Puccinia recondita f. Sp. Tritici/Wheat/Leaf Disc (Brown Rust)
Wheat leaf segments cv. Kanzler were placed on agar in multiwell plates (24-well format) and sprayed with the formulated test compound diluted in water. The leaf disks were inoculated with a spore suspension of the fungus 1 day after application. The inoculated leaf segments were incubated at 19 °C and 75% rh under a light regime of 12 h light/12 h darkness in a climate cabinet and the activity of a compound was assessed as percent disease control compared to untreated when an appropriate level of disease damage appears in untreated check leaf segments (7-9 days after application).

Phaeosphaeria nodorum = experiment: Leaf disc test on wheat, Phaeosphaeria nodorum (Glume Blotch), 5-7 days after application; assay type: in vivo, Phaeosphaeria nodorum (Septoria nodorum) on wheat; conditions: Table 5
Protocol: as §1
Phaeosphaeria Nodorum (Septoria nodorum)/Wheat/Leaf Disc (Glume Blotch)
Wheat leaf segments cv. Kanzler were placed on agar in a multiwell plate (24-well format) and sprayed with the formulated test compound diluted in water. The leaf disks were inoculated with a spore suspension of the fungus 2 days after application. The inoculated test leaf disks were incubated at 20 °C and 75% rh under a light regime of 12 h light/12 h darkness in a climate cabinet and the activity of a compound was assessed as percent disease control compared to untreated when an appropriate level of disease damage appears in untreated check leaf disks (5-7 days after application)

[2] = system: several phytopathogenic fungi; experiment: Liquid culture assays, summary over the fungi tested; assay type: cell-based; conditions: Tables 2 and 3; relative to the other compounds
Protocol: as §2, §3
The effect of the test compound (Formula I(a), I(b) and Lipopeptin A) was tested against the following fungi under the conditions as outlined above and specifically herein below: […]

Mycosphaerella arachidis = experiment: Liquid culture, Mycosphaerella arachidis (Cercospora arachidicola), early leaf spot, 4-5 days; assay type: cell-based; conditions: Table 3
Protocol: as §2, §3, §4
Mycosphaerella arachidis (Cercospora arachidicola)/liquid culture (early leaf spot) Conidia of the fungus from cryogenic storage were directly mixed into nutrient broth (PDB potato dextrose broth). The inhibition of growth was determined photometrically 4-5 days after application.

Zymoseptoria tritici = experiment: Liquid culture, Zymoseptoria tritici (Septoria tritici), Septoria leaf blotch, 4-5 days; assay type: cell-based; conditions: Table 3
Protocol: as §2, §3, §4
Zymoseptoria tritici (Septoria tritici)/liquid culture (Septoria leaf blotch) Conidia of the fungus from cryogenic storage were directly mixed into nutrient broth (PDB potato dextrose broth). The inhibition of growth was determined photometrically 4-5 days after application.

Pyrenophora teres = experiment: Leaf disc preventative test on barley, Pyrenophora teres (Net Blotch), 5-7 days after application; assay type: in vivo; conditions: Table 5
Protocol: as §1
Pyrenophora teres/Barley/Leaf Disc Preventative (Net Blotch)
Barley leaf segments cv. Hasso were placed on agar in a multiwell plate (24-well format) and sprayed with the formulated test compound diluted in water. The leaf segments were inoculated with a spore suspension of the fungus 2 days after application. The inoculated leaf segments were incubated at 20 °C and 65% rh under a light regime of 12 h light/12 h darkness in a climate cabinet and the activity of a compound was assessed as disease control compared to untreated when an appropriate level of disease damage appears in untreated check leaf segments (5-7 days after application).

[3] = system: ROS production induced by flg22; experiment: Reactive Oxygen Species (ROS) burst assay with wheat leaf discs; conditions: Triticum aestivum, foliar, read-out: Fold change (peak ROS)

With CC[C@@H](C)CCCCCCCCCCC(=O)N[C@H]1C(=O)N[C@@H](CC(=O)O)C(=O)N[C@H](CO)C(=O)N[C@@H](CO)C(=O)N(C)[C@H](CC(N)=O)C(=O)N(C)[C@@H](Cc2ccccc2)C(=O)N[C@H]([C@H](O)CC(N)=O)C(=O)N[C@H](CCC(=O)O)C(=O)O[C@@H]1C [Lipopeptin A, reference compound] (X3-[d(aThr)]D[dS]S[dNMeN][NMeF][X4][dE]; ester 1-C) the “activity on leaf discs in words” value (several fungal species) was “less active”, the “% reduction fungal growth” value (Botryotinia fuckeliana; 0.41 ppm) was 0% and the “% reduction fungal growth” value (Botryotinia fuckeliana; 1.2 ppm) was 0%. The “% reduction fungal growth” value (Botryotinia fuckeliana; 3.7 ppm) was 0%, the “% reduction fungal growth” value (Botryotinia fuckeliana; 11 ppm) was 0% and the “% reduction fungal growth” value (Botryotinia fuckeliana; 33 ppm) was 0%. The “% reduction fungal growth” value (Botryotinia fuckeliana; 100 ppm) was 0%, the “% reduction fungal growth” value (Glomerella lagenarium; 0.41 ppm) was 0% and the “% reduction fungal growth” value (Glomerella lagenarium; 1.2 ppm) was 0%. The “% reduction fungal growth” value (Glomerella lagenarium; 3.7 ppm) was 0%, the “% reduction fungal growth” value (Glomerella lagenarium; 11 ppm) was 0% and the “% reduction fungal growth” value (Glomerella lagenarium; 33 ppm) was 0%. The “% reduction fungal growth” value (Glomerella lagenarium; 100 ppm) was 0%, the “% reduction of fungal growth” value ([1]; 0.82 ppm) was 0% and the “% reduction of fungal growth” value ([1]; 2.5 ppm) was 0%. For the same molecule, the “% reduction of fungal growth” value ([1]; 7.4 ppm) was 0%, the “% reduction of fungal growth” value ([1]; 22 ppm) was 0% and the “% reduction of fungal growth” value ([1]; 67 ppm) was 0%. For the same molecule, the “% reduction of fungal growth” value ([1]; 200 ppm) was 35%, the “% reduction of fungal growth” value (Phaeosphaeria nodorum; 0.82 ppm) was 0% and the “% reduction of fungal growth” value (Phaeosphaeria nodorum; 2.5 ppm) was 0%. The “% reduction of fungal growth” value (Phaeosphaeria nodorum; 7.4 ppm) was 0%, the “% reduction of fungal growth” value (Phaeosphaeria nodorum; 22 ppm) was 0% and the “% reduction of fungal growth” value (Phaeosphaeria nodorum; 67 ppm) was 0%. For the same molecule, the “% reduction of fungal growth” value (Phaeosphaeria nodorum; 200 ppm) was 0%, the “activity in liquid culture in words” value [2] was “less active” and the “% reduction fungal growth” value (Mycosphaerella arachidis; 0.41 ppm) was 0%. For the same molecule, the “% reduction fungal growth” value (Mycosphaerella arachidis; 1.2 ppm) was 0%, the “% reduction fungal growth” value (Mycosphaerella arachidis; 3.7 ppm) was 0% and the “% reduction fungal growth” value (Mycosphaerella arachidis; 11 ppm) was 0%. The “% reduction fungal growth” value (Mycosphaerella arachidis; 33 ppm) was 0%, the “% reduction fungal growth” value (Mycosphaerella arachidis; 100 ppm) was 0% and the “% reduction fungal growth” value (Zymoseptoria tritici; 0.41 ppm) was 0%. For the same molecule, the “% reduction fungal growth” value (Zymoseptoria tritici; 1.2 ppm) was 0%, the “% reduction fungal growth” value (Zymoseptoria tritici; 3.7 ppm) was 0% and the “% reduction fungal growth” value (Zymoseptoria tritici; 11 ppm) was 0%. For the same molecule, the “% reduction fungal growth” value (Zymoseptoria tritici; 33 ppm) was 0%, the “% reduction fungal growth” value (Zymoseptoria tritici; 100 ppm) was 70% and the “% reduction of fungal growth” value (Pyrenophora teres; 0.82 ppm) was 0%. For the same molecule, the “% reduction of fungal growth” value (Pyrenophora teres; 2.5 ppm) was 0%, the “% reduction of fungal growth” value (Pyrenophora teres; 7.4 ppm) was 0% and the “% reduction of fungal growth” value (Pyrenophora teres; 22 ppm) was 0%. The “% reduction of fungal growth” value (Pyrenophora teres; 67 ppm) was 0% and the “% reduction of fungal growth” value (Pyrenophora teres; 200 ppm) was 0%.
In the case of O=C(O)c1cc(Cl)nc(Cl)c1 [INA, 2.6-dichloro-isonicotinic acid, reference compound], the fold induction at 100 ppm [3] is reported as 1.8.
